The values below come from ChEMBL document CHEMBL1140835, “Design, synthesis, and in vitro antitumor activity of new 1,4-diarylimidazole-2-ones and their 2-thione analogues” (2008).

What all share (format): functional
Test [1] in a line: Antiproliferative activity against human […] cells.
In a further test the test system is SF-295. Briefly: Antiproliferative activity against human SF295 cells.
A further test deals with RPMI-8226. Nature of the test: Antiproliferative activity against human RPMI8226 cells.
The subject of a further test is SF-539. Briefly: Antiproliferative activity against human SF539 cells.
The subject of a further test is Hs-578T. Nature of the test: Antiproliferative activity against human HS578T cells.
The next test relates to PC-3. Nature of the test: Antiproliferative activity against human PC3 cells.
For another test, the system named is DU-145. Nature of the test: Antiproliferative activity against human DU145 cells.
The next test relates to UO-31. Nature of the test: Antiproliferative activity against human UO31 cells.
The subject of another test is UACC-62. Briefly: Antiproliferative activity against human UACC62 cells.
In another test the test system is RXF 393. Nature of the test: Antiproliferative activity against human RXF393 cells.
Another test relates to HOP-92. Nature of the test: Antiproliferative activity against human HOP92 cells.
Another test relates to HL-60. Briefly: Antiproliferative activity against human HL60 cells.
The next test relates to EKVX. Nature of the test: Antiproliferative activity against human EKVX cells.
The subject of a further test is SNB-75. Briefly: Antiproliferative activity against human SNB75 cells.
Another test relates to MOLT-4. Briefly: Antiproliferative activity against human MOLT4 cells.
The next test relates to HCT-116. Briefly: Antiproliferative activity against human HCT116 cells.
The subject of the next test is CAKI-1. Nature of the test: Antiproliferative activity against human CAKI-1 cells.
For the next test, the system named is SK-MEL-5. Nature of the test: Antiproliferative activity against human SK-MEL-5 cells.
In the next test the test system is CCRF-CEM. Nature of the test: Antiproliferative activity against human CCRF-CEM cells.
The next test deals with HCT-15. Nature of the test: Antiproliferative activity against human HCT15 cells.
The next test concerns LOX IMVI. Briefly: Antiproliferative activity against human LOX IMVI cells.
For another test, the system named is 786-0. Nature of the test: Antiproliferative activity against human 786-0 cells.
In another test the test system is SR. Briefly: Antiproliferative activity against human SR cells. To be noted: for TGI: read-out: pTGI (converted).

Usually GI50 stands for the concentration at which growth is held to half of that of the control. Turning to `COc1ccc(-n2cc(-c3cc(OC)c(OC)c(OC)c3)[nH]c2=S)cc1OC`, the GI50 (in [1]; in the test on SF-295; in the test on RPMI-8226; in the test with SF-539; with Hs-578T; in the test on PC-3) was greater than 100 µM each time. Also, the GI50 with DU-145, with UO-31, in the test with UACC-62, with RXF 393, in the test with HOP-92 and in the test with HL-60 was greater than 100 µM each time. Moreover, the GI50 was greater than 100 µM with EKVX; 63.1 µM in the test with SNB-75; 6.31 µM with MOLT-4; greater than 100 µM with HCT-116; greater than 100 µM in the test on CAKI-1; greater than 100 µM with SK-MEL-5. Also, the GI50 in the test on CCRF-CEM is greater than 100 µM; with HCT-15, greater than 100 µM; in the test on LOX IMVI it was greater than 100 µM; in the test on 786-0, greater than 100 µM; in the test on SR it was 2.51 µM. Besides, the TGI with SR is 7.94 µM.

As to `O=c1[nH]c(-c2ccc(Cl)c(Cl)c2)cn1-c1ccc(Cl)cc1`, the GI50 in test [1] is 25.1 µM; with SF-295, 25.1 µM; in the test with RPMI-8226, 63.1 µM; in the test on SF-539, 20 µM; in the test with Hs-578T, 15.8 µM; in the test on PC-3, 63.1 µM. Further, the concentration for 50% growth inhibition (GI50) was 31.6 µM with DU-145; 25.1 µM in the test with UO-31; 25.1 µM with UACC-62; 31.6 µM in the test on RXF 393; 15.8 µM with HOP-92; 31.6 µM in the test on HL-60. In addition, the GI50 in the test with EKVX was 31.6 µM; in the test on SNB-75, 20 µM; in the test with MOLT-4, 20 µM; with HCT-116 it was 15.8 µM; with CAKI-1, 25.1 µM; in the test with SK-MEL-5 it was 39.8 µM. The GI50 with CCRF-CEM is 39.8 µM; with HCT-15, greater than 100 µM; in the test on LOX IMVI it was 39.8 µM; with 786-0, 20 µM; in the test on SR it was 5.01 µM. Also, the TGI in the test with SR was 15.8 µM.
